Results reported in ChEMBL document CHEMBL5154798, “Structure-based discovery of receptor tyrosine kinase AXL degraders with excellent anti-tumor activity by selectively degrading AXL and inducing methuosis” (Eur J Med Chem, 2022).
Active and inactive are the calls of the source. No cut-off for these calls is given here.

Columns and labels:
4T1 = assay: Antiproliferative activity against mouse 4T1 cells highly expressing AXL after 72 hrs by MTT assay; conditions: 4T1, 72 h
[1] = Systemic toxicity in female BALB/c nude mouse xenografted with human MDA-MB-231 cells assessed as inflammatory cell infiltration in kidney at 25 mg/kg, ip; format: organism-based; conditions: in vivo
[2] = Systemic toxicity in female BALB/c nude mouse xenografted with human MDA-MB-231 cells assessed as necrosis of spleen tissue at 25 mg/kg, ip; format: organism-based; conditions: in vivo
[3] = Systemic toxicity in female BALB/c nude mouse xenografted with human MDA-MB-231 cells assessed as inflammatory cell infiltration in liver at 25 mg/kg, ip; format: organism-based; conditions: in vivo
[4] = Systemic toxicity in female BALB/c nude mouse xenografted with human MDA-MB-231 cells assessed as necrosis of kidney tissue at 25 mg/kg, ip; format: organism-based; conditions: in vivo
[5] = Cytotoxicity against human MCF-10A cells after 72 hrs by MTT assay; format: toxicity, cell-based
[6] = Systemic toxicity in female BALB/c nude mouse xenografted with human MDA-MB-231 cells assessed as necrosis of liver tissue at 25 mg/kg, ip; format: organism-based; conditions: in vivo
[7] = Systemic toxicity in female BALB/c nude mouse xenografted with human MDA-MB-231 cells assessed as necrosis of lung tissue at 25 mg/kg, ip; format: organism-based; conditions: in vivo
[8] = Toxicity in female BALB/c nude mouse xenografted with human MDA-MB-231 cells assessed as change in body wieght at 25 mg/kg, ip; format: organism-based; conditions: in vivo
[9] = Cytotoxicity against human GES1 cells after 72 hrs by MTT assay; format: toxicity, cell-based
MDA-MB-231 [10] = assay: Antiproliferative activity against human MDA-MB-231 cells highly expressing AXL after 72 hrs by MTT assay; conditions: MDA-MB-231, 72 h
[11] = Systemic toxicity in female BALB/c nude mouse xenografted with human MDA-MB-231 cells assessed as inflammatory cell infiltration in lung at 25 mg/kg, ip; format: organism-based; conditions: in vivo
MDA-MB-231 [12] = assay: Antitumor activity against human MDA-MB-231 cells xenografted in female BALB/c nude mouse assessed as tumor growth inhibition at 25 mg/kg, ip; format: functional, organism-based
[13] = Systemic toxicity in female BALB/c nude mouse xenografted with human MDA-MB-231 cells assessed as inflammatory cell infiltration in spleen at 25 mg/kg, ip; format: organism-based; conditions: in vivo
[14] = Systemic toxicity in female BALB/c nude mouse xenografted with human MDA-MB-231 cells assessed as inflammatory cell infiltration in heart at 25 mg/kg, ip; format: organism-based; conditions: in vivo
[15] = Systemic toxicity in female BALB/c nude mouse xenografted with human MDA-MB-231 cells assessed as necrosis of heart tissue at 25 mg/kg, ip; format: organism-based; conditions: in vivo
[16] = target: T1, Tyrosine-protein kinase receptor UFO (Homo sapiens, UniProt P30530); assay: Inhibition of AXL (unknown origin) measured by FRET assay
T1 sequence (P30530 whole entry): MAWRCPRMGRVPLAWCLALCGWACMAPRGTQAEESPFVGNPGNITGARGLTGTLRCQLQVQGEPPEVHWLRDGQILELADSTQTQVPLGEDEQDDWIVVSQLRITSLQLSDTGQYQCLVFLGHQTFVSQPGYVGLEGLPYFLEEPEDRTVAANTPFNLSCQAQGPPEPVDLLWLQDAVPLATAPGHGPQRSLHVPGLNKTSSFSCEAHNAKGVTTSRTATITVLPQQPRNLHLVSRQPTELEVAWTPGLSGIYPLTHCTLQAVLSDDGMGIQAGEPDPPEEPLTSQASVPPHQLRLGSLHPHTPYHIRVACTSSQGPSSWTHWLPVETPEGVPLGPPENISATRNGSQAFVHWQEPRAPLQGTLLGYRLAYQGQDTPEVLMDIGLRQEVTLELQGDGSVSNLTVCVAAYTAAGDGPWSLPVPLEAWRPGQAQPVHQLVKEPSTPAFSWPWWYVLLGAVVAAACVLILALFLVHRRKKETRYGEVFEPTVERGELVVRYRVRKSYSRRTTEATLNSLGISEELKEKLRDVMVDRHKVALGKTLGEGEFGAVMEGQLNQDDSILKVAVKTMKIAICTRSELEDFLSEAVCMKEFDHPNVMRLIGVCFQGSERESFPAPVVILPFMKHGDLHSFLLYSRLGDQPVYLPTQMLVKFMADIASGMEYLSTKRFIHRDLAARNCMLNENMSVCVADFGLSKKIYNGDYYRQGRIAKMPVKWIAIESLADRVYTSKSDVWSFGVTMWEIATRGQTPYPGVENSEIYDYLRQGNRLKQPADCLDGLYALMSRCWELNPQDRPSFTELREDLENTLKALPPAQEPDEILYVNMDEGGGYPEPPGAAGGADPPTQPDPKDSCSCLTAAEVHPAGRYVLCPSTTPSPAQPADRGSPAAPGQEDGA

| Compound | IC50 (4T1) | IC50 at 72 h [5] | IC50 at 72 h [9] | IC50 (MDA-MB-231 [10]) | further results |
| --- | --- | --- | --- | --- | --- |
| Nc1nc(Nc2ccc3c(c2)CC[C@@H](N2CCCC2)CC3)nn1-c1cc2c(nn1)-c1ccccc1CCC2 [BEMCENTINIB] | 0.94 µM | > 60 µM | > 60 µM | 2.84 µM | Activity [1]: Non-Toxic; Activity [2]: Non-Toxic; Activity [3]: Non-Toxic; Activity [4]: Non-Toxic; Activity [6]: Non-Toxic; Activity [7]: Non-Toxic; Activity [8]: Non-Toxic; Activity [11]: Non-Toxic; TGI (MDA-MB-231 [12]): Active; Activity [13]: Non-Toxic; Activity [14]: Non-Toxic; Activity [15]: Non-Toxic |
| Nc1nc(Nc2ccc(CNC(=O)CCCCCNc3cccc4c3CN(C3CCC(=O)NC3=O)C4=O)cc2)nn1-c1cc2c(nn1)-c1ccccc1CCC2 (stereo not drawn) | 29.6 µM | > 60 µM | > 60 µM | 32.8 µM |  |
| Nc1nc(NCCNC(=O)CCCNc2cccc3c2CN(C2CCC(=O)NC2=O)C3=O)nn1-c1ccc(-c2ccccc2)nn1 (stereo not drawn) | > 60 µM | > 60 µM | > 60 µM | > 60 µM | IC50 [16]: > 60 µM |
| Nc1nc(Nc2ccc(CNC(=O)CCCCNc3cccc4c3CN(C3CCC(=O)NC3=O)C4=O)cc2)nn1-c1ccc(-c2ccccc2)nn1 (stereo not drawn) | 54.2 µM | > 60 µM | > 60 µM | 35.7 µM |  |
| Nc1nc(Nc2ccc(CNC(=O)CCCCNc3cccc4c3CN(C3CCC(=O)NC3=O)C4=O)cc2)nn1-c1cc2c(nn1)-c1ccccc1CCC2 (stereo not drawn) | 41.3 µM | > 60 µM | > 60 µM | 39.1 µM |  |
| Nc1nc(NCCNC(=O)CCCCCNc2cccc3c2CN(C2CCC(=O)NC2=O)C3=O)nn1-c1cc2c(nn1)-c1ccccc1CCC2 (stereo not drawn) | 37.5 µM | > 60 µM | > 60 µM | > 60 µM |  |
| Nc1nc(NCCNC(=O)CCCCCCCNc2cccc3c2CN(C2CCC(=O)NC2=O)C3=O)nn1-c1cc2c(nn1)-c1ccccc1CCC2 (stereo not drawn) | 27.2 µM | > 60 µM | > 60 µM | > 60 µM |  |
| Nc1nc(NCCNC(=O)CCCCNc2cccc3c2CN(C2CCC(=O)NC2=O)C3=O)nn1-c1cc2c(nn1)-c1ccccc1CCC2 (stereo not drawn) | 7.05 µM | > 60 µM | > 60 µM | 36.2 µM |  |
| Nc1nc(Nc2ccc(CNC(=O)CCCCCCNc3cccc4c3CN(C3CCC(=O)NC3=O)C4=O)cc2)nn1-c1cc2c(nn1)-c1ccccc1CCC2 (stereo not drawn) | 2230 µM | > 60 µM | > 60 µM | 29.5 µM |  |
| Nc1nc(NCCNC(=O)CCCCCCCNc2cccc3c2CN(C2CCC(=O)NC2=O)C3=O)nn1-c1ccc(-c2ccccc2)nn1 (stereo not drawn) | 19.5 µM | > 60 µM | > 60 µM | 34.7 µM |  |
